According to patent US11384055B2 (BIOMARIN PHARMACEUTICAL INC., priority 2017, dated 2022):

target: T1, Human GO (Homo sapiens, UniProt Q9UJM8); test: GO enzymatic assay (coupled fluorescence/HRP assay, glycolate substrate); type: biochemical; settings: Table 2; read-out: Range (range of IC50 values calculated from the enzymatic assays)
T1 construct: purchased Novus Biologicals NBP1-72412
T1 sequence (Q9UJM8 1-370): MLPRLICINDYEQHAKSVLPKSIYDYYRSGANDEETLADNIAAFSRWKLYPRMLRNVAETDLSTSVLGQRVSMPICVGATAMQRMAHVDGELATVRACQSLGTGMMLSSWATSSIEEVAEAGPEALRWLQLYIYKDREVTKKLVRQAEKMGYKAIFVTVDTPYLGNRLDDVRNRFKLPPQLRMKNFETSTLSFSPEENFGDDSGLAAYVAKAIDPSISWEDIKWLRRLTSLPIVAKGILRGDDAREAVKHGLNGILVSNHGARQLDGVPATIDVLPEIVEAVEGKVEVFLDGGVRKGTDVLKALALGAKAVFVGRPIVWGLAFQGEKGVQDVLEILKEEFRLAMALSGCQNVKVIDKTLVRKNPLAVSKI
In short: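 Coupled HRP/fluorescence read-out of glycolate oxidation by human GO in 50 mM potassium phosphate buffer (pH 7). Inhibitors added across a concentration range.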

Structure (SMILES) | IC50 [µM]
O=C(O)c1[nH]nnc1Oc1ccc(N2CCC(F)(F)CC2)cc1 [Compound 301, 4-(4-(4,4-difluoropiperidin-1-yl)phenoxy)-1H-1,2,3-triazole-5-carboxylic acid 2,2,2-trifluoroacetate] | 0.1 to 1
O=C(OCOC(=O)C1CCCCC1)c1[nH]nnc1O[C@H]1CC[C@H](c2ccc(OC(F)(F)F)cc2)CC1 [Compound 303, ((cyclohexanecarbonyl)oxy)methyl 4-(((trans)-4-(4-(trifluoromethoxy)phenyl)cyclohexyl)oxy)-1H-1,2,3-triazole-5-carboxylate] | > 10
O=C(OCOC(=O)c1[nH]nnc1O[C@H]1CC[C@H](c2ccc(OC(F)(F)F)cc2)CC1)c1ccccc1 [Compound 305, (benzoyloxy)methyl 4-(((trans)-4-(4-(trifluoromethoxy)phenyl)cyclohexyl)oxy)-1H-1,2,3-triazole-5-carboxylate] | > 10
O=C(O)c1[nH]nnc1Oc1ccc(C2CCC(N3CCCCC3)CC2)cc1 (centres unmarked) [Compound 306, 4-(4-(4-(piperidin-1-yl)cyclohexyl)phenoxy)-1H-1,2,3-triazole-5-carboxylic acid 2,2,2-trifluoroacetate] | 0.1 to 1
CC(C)C(=O)OCOC(=O)c1[nH]nnc1O[C@H]1CC[C@H](c2ccc(OC(F)(F)F)cc2)CC1 [Compound 307, (isobutyryloxy)methyl 4-(((trans)-4-(4-(trifluoromethoxy)phenyl)cyclohexyl)oxy)-1H-1,2,3-triazole-5-carboxylate] | 1 to 10
CCC(=O)OCOC(=O)c1[nH]nnc1Sc1ccc(-c2ccc(N3CCCCC3)cc2)cc1 [Compound 313, (propionyloxy)methyl 4-((4′-(piperidin-1-yl)-[1,1′-biphenyl]-4-yl)thio)-1H-1,2,3-triazole-5-carboxylate 2,2,2-trifluoroacetate] | 1 to 10
O=C(OCOC(=O)C1CCCCC1)c1[nH]nnc1Sc1ccc(-c2ccc(N3CCCCC3)cc2)cc1 [Compound 317, ((cyclohexanecarbonyl)oxy)methyl 4-((4′-(piperidin-1-yl)-[1,1′-biphenyl]-4-yl)thio)-1H-1,2,3-triazole-5-carboxylate 2,2,2-trifluoroacetate] | > 10
O=C(O)c1[nH]nnc1Sc1ccc(-c2ccc(N3CCC(F)(F)CC3)cc2)cc1 [Compound 319, 4-((4′-(4,4-difluoropiperidin-1-yl)-[1,1′-biphenyl]-4-yl)thio)-1H-1,2,3-triazole-5-carboxylic acid 2,2,2-trifluoroacetate] | < 0.1
O=C(O)c1[nH]nnc1SC1Cc2ccc(OC(F)(F)F)cc2C1 (centres unmarked) [Compound 320, 4-((5-(trifluoromethoxy)-2,3-dihydro-1H-inden-2-yl)thio)-1H-1,2,3-triazole-5-carboxylic acid] | < 0.1
O=C(O)c1[nH]nnc1Sc1ccc(-c2ccc(OC(F)(F)F)cn2)cc1 [Compound 321, 4-((4-(5-(trifluoromethoxy)pyridin-2-yl)phenyl)thio)-1H-1,2,3-triazole-5-carboxylic acid 2,2,2-trifluoroacetate] | < 0.1
O=C(O)c1[nH]nnc1CSc1ccc(-c2ccc(Cl)c(Cl)c2)cc1 [Compound 322, 4-(((3′,4′-dichloro-[1,1′-biphenyl]-4-yl)thio)methyl)-1H-1,2,3-triazole-5-carboxylic acid 2,2,2-trifluoroacetate] | < 0.1
O=C(O)c1[nH]nnc1SC1CCN(c2ccc(Cl)c(Cl)c2)CC1 [Compound 323, 4-((1-(3,4-dichlorophenyl)piperidin-4-yl)thio)-1H-1,2,3-triazole-5-carboxylic acid 2,2,2-trifluoroacetate] | < 0.1
O=C(O)c1[nH]nnc1SC1CCN(c2ccc(C(F)(F)F)cc2)CC1 [Compound 324] | < 0.1
O=C(O)c1[nH]nnc1SC1CCN(c2cc(Cl)cc(Cl)c2)CC1 [Compound 325, 4-((1-(3,5-dichlorophenyl)piperidin-4-yl)thio)-1H-1,2,3-triazole-5-carboxylic acid 2,2,2-trifluoroacetate] | < 0.1
O=C(O)c1[nH]nnc1SC1CCC(c2cccc(OC(F)(F)F)c2)CC1 (centres unmarked) [Compound 326, 4-((4-(3-(trifluoromethoxy)phenyl)cyclohexyl)thio)-1H-1,2,3-triazole-5-carboxylic acid] | < 0.1
O=C(O)c1[nH]nnc1SC1CCC(c2cccc(C(F)(F)F)c2)CC1 (centres unmarked) [Compound 327, 4-((4-(3-(trifluoromethyl)phenyl)cyclohexyl)thio)-1H-1,2,3-triazole-5-carboxylic acid] | < 0.1
O=C(O)c1[nH]nnc1CSc1ccc(-c2cc(Cl)cc(Cl)c2)cc1 [Compound 328, 4-(((3′,5′-dichloro-[1,1′-biphenyl]-4-yl)thio)methyl)-1H-1,2,3-triazole-5-carboxylic acid] | < 0.1
O=C(O)c1[nH]nnc1CSc1ccc(-c2ccc(OC(F)(F)F)c(Cl)c2)cc1 [Compound 329, 4-(((3′-chloro-4′-(trifluoromethoxy)-[1,1′-biphenyl]-4-yl)thio)methyl)-1H-1,2,3-triazole-5-carboxylic acid] | < 0.1
O=C(O)c1[nH]nnc1SC1CCN(c2cc(Cl)ccc2Cl)CC1 [Compound 330, 4-((1-(2,5-dichlorophenyl)piperidin-4-yl)thio)-1H-1,2,3-triazole-5-carboxylic acid] | < 0.1
O=C(O)c1[nH]nnc1S[C@H]1CC[C@@H](c2cc(Cl)cc(Cl)c2)CC1 [Compound 331, 4-(((cis)-4-(3,5-dichlorophenyl)cyclohexyl)thio)-1H-1,2,3-triazole-5-carboxylic acid] | < 0.1

The next lines start with the values.

IC50 [µM] | Structure (SMILES)
< 0.1 | O=C(O)c1[nH]nnc1Oc1ccc(-c2ccc(N3CCC(F)(F)CC3)cc2)cc1 [Compound 297, 4-((4′-(4,4-difluoropiperidin-1-yl)-[1,1′-biphenyl]-4-yl)oxy)-1H-1,2,3-triazole-5-carboxylic acid 2,2,2-trifluoroacetate]
< 0.1 | O=C(O)c1[nH]nnc1OCC1CCC(c2ccc(OC(F)(F)F)cc2)CC1 (centres unmarked) [Compound 298, 4-((4-(4-(trifluoromethoxy)phenyl)cyclohexyl)methoxy)-1H-1,2,3-triazole-5-carboxylic acid]
< 0.1 | O=C(O)c1[nH]nnc1COc1ccc(-c2cc(Cl)cc(Cl)c2)cc1 [Compound 299, 4-(((3′,5′-dichloro-[1,1′-biphenyl]-4-yl)oxy)methyl)-1H-1,2,3-triazole-5-carboxylic acid]
< 0.1 | O=C(O)c1[nH]nnc1COc1ccc(-c2ccc(OC(F)(F)F)c(Cl)c2)cc1 [Compound 300, 4-(((3′-chloro-4′-(trifluoromethoxy)-[1,1′-biphenyl]-4-yl)oxy)methyl)-1H-1,2,3-triazole-5-carboxylic acid]
< 0.1 | O=C(O)c1[nH]nnc1O[C@H]1CC[C@@H](c2cc(Cl)cc(Cl)c2)CC1 [Compound 304, 4-(((1s,4s)-4-(3,5-dichlorophenyl)cyclohexyl)oxy)-1H-1,2,3-triazole-5-carboxylic acid]
< 0.1 | O=C(O)c1[nH]nnc1O[C@H]1CC[C@@H](c2ccc(Cl)c(Cl)c2)CC1 [Compound 308-1, 4-(((cis)-4-(3,4-dichlorophenyl)cyclohexyl)oxy)-1H-1,2,3-triazole-5-carboxylic acid]
< 0.1 | O=C(O)c1[nH]nnc1O[C@H]1CC[C@H](c2ccc(Cl)c(Cl)c2)CC1 [Compound 308-2, 4-(((trans)-4-(3,4-dichlorophenyl)cyclohexyl)oxy)-1H-1,2,3-triazole-5-carboxylic acid]
< 0.1 | O=C(O)c1[nH]nnc1Oc1ccc(Cl)c(OCC2CCCCC2)c1 [Compound 309, 4-(4-chloro-3-(cyclohexylmethoxy)phenoxy)-1H-1,2,3-triazole-5-carboxylic acid]
< 0.1 | O=C(O)c1[nH]nnc1O[C@H]1CC[C@@H](c2ccc(C(F)(F)F)cc2)CC1 [Compound 310, 4-(((cis)-4-(4-(trifluoromethyl)phenyl)cyclohexyl)oxy)-1H-1,2,3-triazole-5-carboxylic acid]
< 0.1 | O=C(O)c1[nH]nnc1SC1CCC2(CCCC2)CC1 [Compound 311, 4-(spiro[4.5]decan-8-ylthio)-1H-1,2,3-triazole-5-carboxylic acid 2,2,2-trifluoroacetate]
< 0.1 | O=C(O)c1[nH]nnc1CSc1ccc(-c2ccc(OC(F)(F)F)cc2)cc1 [Compound 312, 4-(((4′-(trifluoromethoxy)-[1,1′-biphenyl]-4-yl)thio)methyl)-1H-1,2,3-triazole-5-carboxylic acid 2,2,2-trifluoroacetate]
< 0.1 | O=C(O)c1[nH]nnc1SC1CCC(c2ccc(OC(F)(F)F)cc2)C1 (centres unmarked) [Compound 314, 4-((3-(4-(trifluoromethoxy)phenyl)cyclopentyl)thio)-1H-1,2,3-triazole-5-carboxylic acid]
< 0.1 | O=C(O)c1[nH]nnc1SC1CCC2(CCCCC2)CC1 [Compound 315, 4-(spiro[5.5]undecan-3-ylthio)-1H-1,2,3-triazole-5-carboxylic acid 2,2,2-trifluoroacetate]
< 0.1 | O=C(O)c1[nH]nnc1SCc1ccc(N2CCCCC2)c2ccccc12 [Compound 316, 4-(((4-(piperidin-1-yl)naphthalen-1-yl)methyl)thio)-1H-1,2,3-triazole-5-carboxylic acid 2,2,2-trifluoroacetate]
< 0.1 | O=C(O)c1[nH]nnc1Sc1ccc(Cl)c(OC(F)(F)F)c1 [Compound 318, 4-((4-chloro-3-(trifluoromethoxy)phenyl)thio)-1H-1,2,3-triazole-5-carboxylic acid]
